How the values were obtained:
[1] = target: T1, dopamine transporter (DAT) (Homo sapiens, UniProt Q01959); assay: Substrate uptake inhibition in HEK-DAT cells; type: cell-based; details: for inhibition of DAT and selectivity against SERT and NET: verbal summary of EC50 values
T1 construct: expressed in transfected cells; host or cells: HEK293 (HEK-DAT)
Description: (§1) The human isoforms of DAT, SERT and NET were expressed in HEK293 (HEK-DAT, HEK-SERT and HEK-NET) cells. DAT inhibitors-mediated monoamine transporter effects on substrate uptake were analyzed according to procedure described by Sitte et al. In brief, cells were grown in poly-d-lysine coated 96-well plates, incubated with compounds diluted in Krebs-Ringer-HEPES buffer, substrates were subsequently added, cells were lysed with 1% SDS (sodium dodecyl sulphate) and released radioactivity was measure by a liquid scintillation counter (23).
(§2) EC50-values for the dopamine transporter (DAT), the norepinephrine transporter (NET) and the serotonin transporter (SERT) were obtained: […]

[2] = target: T2, serotonin transporter (SERT) (Homo sapiens, UniProt P31645); assay: Substrate uptake inhibition in HEK-SERT cells; type: cell-based; details: human SERT expressed in HEK293, substrate uptake
T2 construct: expressed in transfected cells; host or cells: HEK293 (HEK-SERT)
T2 sequence (P31645 whole entry): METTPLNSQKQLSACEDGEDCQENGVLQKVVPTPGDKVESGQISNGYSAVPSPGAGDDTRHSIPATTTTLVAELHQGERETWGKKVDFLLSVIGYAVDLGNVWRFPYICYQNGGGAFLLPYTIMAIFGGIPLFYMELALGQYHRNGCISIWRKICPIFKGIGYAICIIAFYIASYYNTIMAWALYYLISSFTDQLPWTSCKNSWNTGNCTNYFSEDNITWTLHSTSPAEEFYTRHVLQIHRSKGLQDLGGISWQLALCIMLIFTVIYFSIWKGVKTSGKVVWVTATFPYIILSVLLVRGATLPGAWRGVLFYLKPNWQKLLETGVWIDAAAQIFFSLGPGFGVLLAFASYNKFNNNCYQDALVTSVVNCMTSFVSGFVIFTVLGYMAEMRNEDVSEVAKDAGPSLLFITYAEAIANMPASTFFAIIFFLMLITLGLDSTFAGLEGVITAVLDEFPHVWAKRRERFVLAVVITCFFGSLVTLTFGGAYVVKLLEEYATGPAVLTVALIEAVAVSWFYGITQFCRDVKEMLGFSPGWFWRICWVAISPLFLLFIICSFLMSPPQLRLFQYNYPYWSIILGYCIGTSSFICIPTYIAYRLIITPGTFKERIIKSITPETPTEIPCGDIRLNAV
Description: as §1, §2

[3] = target: T3, norepinephrine transporter (NET) (Homo sapiens, UniProt P23975); assay: Substrate uptake inhibition in HEK-NET cells; type: cell-based; details: human NET expressed in HEK293, substrate uptake
T3 construct: expressed in transfected cells; host or cells: HEK293 (HEK-NET)
T3 sequence (P23975 whole entry): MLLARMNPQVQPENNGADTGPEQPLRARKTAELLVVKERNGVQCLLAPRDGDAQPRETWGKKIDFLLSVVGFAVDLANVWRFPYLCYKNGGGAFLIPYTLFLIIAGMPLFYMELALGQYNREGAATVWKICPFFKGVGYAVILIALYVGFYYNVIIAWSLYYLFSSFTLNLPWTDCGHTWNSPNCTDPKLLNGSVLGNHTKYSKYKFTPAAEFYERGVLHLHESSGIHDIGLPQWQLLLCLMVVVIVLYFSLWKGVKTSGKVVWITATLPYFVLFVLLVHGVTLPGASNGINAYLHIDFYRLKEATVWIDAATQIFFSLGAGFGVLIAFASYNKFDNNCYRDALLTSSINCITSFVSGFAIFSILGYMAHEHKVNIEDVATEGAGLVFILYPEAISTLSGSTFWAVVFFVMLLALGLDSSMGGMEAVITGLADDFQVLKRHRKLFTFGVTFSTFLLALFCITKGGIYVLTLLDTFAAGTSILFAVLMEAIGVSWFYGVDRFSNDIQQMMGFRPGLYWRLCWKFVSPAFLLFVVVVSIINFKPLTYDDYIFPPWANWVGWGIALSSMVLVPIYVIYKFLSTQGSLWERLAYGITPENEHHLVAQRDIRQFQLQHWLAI
Description: as §1, §2

Male Sprague Dawley rats = assay: 12 arm radial arm maze (RAM), working memory errors; type: in vivo, rat; details: versus DMSO-injected counterparts
From the text: One such animal model is the radial arm maze using rats and is given in detail in Timofeva O. et al., Brain Res. 1308 (2010) 147-152: Wenk G. et al.; The Journal of Neuroscience (2004) 8.5A.1-8.5A.12; Akoto M. et al.; The Journal of Neuroscience (2000)20 (189: 7116-7121: Levin E D et al.; Behavioral Brain Res. 208 (2010) 319-327. Li-Bo Z. et al.; Neuropharmacology 37, 1998) 323-330. Roegge, C S. et al.; Toxicological Sciences 57, 121-30 (2000).
Male Sprague Dawley rats were used for the studies aged between 12-14 weeks. Twelve rats per group were used for this study. All rats were obtained from Core Unit of Biomedical Research, Division of Laboratory Animal Science and Genetics, Medical University of Vienna and maintained in cages made of makrolon and filled with autoclaved woodchips and water in bottles was available ad libitum. The room was illuminated with artificial light at an intensity of about 200 lx in 2 m from 5 am to 7 pm. Radial arm maze (RAM) training was performed between 8:00 h and 13:00 h. […]
Before starting the training, rats were given two habituation sessions in which food was placed all over the maze and rats were allowed to explore the maze and consume the food for 5 minutes. […] An arm was baited only once and a repeated entry into a baited arm was counted as a working memory error, whereas any entry into an un-baited arm was recorded as a reference memory error. […]

T1 sequence (Q01959 whole entry): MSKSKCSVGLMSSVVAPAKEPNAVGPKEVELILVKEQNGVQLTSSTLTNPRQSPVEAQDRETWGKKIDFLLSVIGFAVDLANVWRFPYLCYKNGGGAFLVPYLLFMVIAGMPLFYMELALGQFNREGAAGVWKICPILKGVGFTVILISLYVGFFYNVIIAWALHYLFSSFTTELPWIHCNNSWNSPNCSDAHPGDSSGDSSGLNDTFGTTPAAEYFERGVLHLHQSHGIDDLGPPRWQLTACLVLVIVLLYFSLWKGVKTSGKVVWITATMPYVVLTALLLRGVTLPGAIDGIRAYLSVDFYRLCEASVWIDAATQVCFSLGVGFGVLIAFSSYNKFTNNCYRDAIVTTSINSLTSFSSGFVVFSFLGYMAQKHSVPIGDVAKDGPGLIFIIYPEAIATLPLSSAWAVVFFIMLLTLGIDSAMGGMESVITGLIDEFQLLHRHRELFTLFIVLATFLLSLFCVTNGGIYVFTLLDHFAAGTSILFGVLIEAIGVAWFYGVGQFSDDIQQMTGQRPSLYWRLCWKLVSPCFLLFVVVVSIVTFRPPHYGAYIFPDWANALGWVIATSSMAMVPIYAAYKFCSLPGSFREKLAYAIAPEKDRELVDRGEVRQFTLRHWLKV

## Cc1csc(C[S+]([O-])C(c2ccccc2)c2ccccc2)n1 (stereo not drawn)
other
  melting point: 104 to 107 °C

## [O-][S+](Cc1cscn1)C(c1ccccc1)c1ccccc1 (stereo not drawn) [4-(diphenylmethanesulfinylmethyl)-1,3-thiazole]
[1]
  EC50: 7.3 µM
  inhibition of DAT and selectivity against SERT and NET: excellent inhibition and selectivity against SERT and NET
[2]
  EC50: 456 µM
[3]
  EC50: 547 µM

## [O-][S+](Cc1nccs1)C(c1ccccc1)c1ccccc1 (stereo not drawn) [C1, 2-(diphenylmethanesulfinylmethyl}-1,3-thiazole]
Male Sprague Dawley rats; day eight to ten, p<0.05
  performance in RAM training from day eight (working memory errors): performed better
Male Sprague Dawley rats; up to day seven
  performance in RAM training up to day seven: comparable level
other
  melting point: 119 to 122 °C

## [O-][S+](Cc1csc(C2CC2)n1)C(c1ccccc1)c1ccccc1 (stereo not drawn) [4-(diphenylmethanesulfinylmethyl)-2-cyclopropyl-1,3-thiazole]
[1]
  EC50: 4.1 µM
  inhibition of DAT and selectivity against SERT and NET: excellent inhibition and selectivity against SERT and NET
[2]
  EC50: 436 µM
[3]
  EC50: 774 µM

Source: patent publication US10221147B2, “Heterocyclic compounds with working memory enhancing activity” (Red Bull GmbH, priority 2014, dated 2019)
